For 1 compound, IC50 results are on record in ChEMBL document CHEMBL1135294, “Synthesis of a molecular mimic of the Glc1Man9 oligoside as potential inhibitor of calnexin binding to DeltaF508 CFTR protein” (Bioorg Med Chem Lett, 2002).

For the experiment, the target named is T1, Calnexin (Homo sapiens, UniProt P27824).
T1 sequence (P27824 whole entry): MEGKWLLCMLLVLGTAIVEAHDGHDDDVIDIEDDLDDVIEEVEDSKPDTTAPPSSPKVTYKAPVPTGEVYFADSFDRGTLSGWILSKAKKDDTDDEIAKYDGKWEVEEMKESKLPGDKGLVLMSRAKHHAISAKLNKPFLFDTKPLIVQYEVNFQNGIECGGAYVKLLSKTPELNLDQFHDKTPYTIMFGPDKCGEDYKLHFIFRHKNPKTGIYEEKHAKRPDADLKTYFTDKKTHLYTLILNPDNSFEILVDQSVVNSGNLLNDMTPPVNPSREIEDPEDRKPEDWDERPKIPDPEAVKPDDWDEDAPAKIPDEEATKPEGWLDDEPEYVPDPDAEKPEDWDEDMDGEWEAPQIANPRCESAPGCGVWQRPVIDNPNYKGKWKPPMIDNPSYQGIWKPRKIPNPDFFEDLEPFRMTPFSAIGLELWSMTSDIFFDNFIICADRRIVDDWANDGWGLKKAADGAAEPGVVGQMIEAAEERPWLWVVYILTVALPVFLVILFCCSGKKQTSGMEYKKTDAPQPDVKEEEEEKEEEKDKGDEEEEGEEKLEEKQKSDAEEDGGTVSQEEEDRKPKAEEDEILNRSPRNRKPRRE
Put plainly: Compound was tested for its ability to inhibit binding of [3H]- Glc1Man9 GlcNAc2 to GST-fused calnexin immobilized on glutathione-agarose.

The term IC50 denotes the concentration that inhibits the measured activity by half. Turning to `O=C(NCC(CNC(=O)OCCNC(=O)O[C@H]1O[C@@H](CO)[C@@H](O)[C@H](O)[C@H]1O)OC(=O)NC(O)NC(=O)OCCOCCNC(=O)O[C@H]1C[C@@H](CO)[C@@H](O)[C@H](O[C@H]2O[C@@H](CO)[C@@H](O)[C@H](O)[C@@H]2O)[C@H]1O)OCCNC(=O)O[C@H]1O[C@@H](CO)[C@@H](O)[C@H](O)[C@H]1O` (stereo partly specified), the IC50 is 300 µM.
